{"source": "patent US11045510B2", "about": "“Combination of aqueous extracts of watercress and nasturtium and ATP for use in the treatment of alopecia” (PIERRE FABRE DERMO-COSMETIQUE, priority 2017, dated 2021)", "key": {"[1]": {"test_system": "hepatocyte growth factor (HGF) released by dermal papilla cells", "assay": "HGF release by dermal papilla cells derived from human hair follicles", "type": "cell-based", "details": "ATP 30 μM", "description": "(§1) The goal of this study is to evaluate the effects of the combination of an aqueous extract of watercress and of an aqueous extract of Indian cress, combined with ATP on the release of 2 anagen phase markers, hepatocyte growth factor (HGF) and keratinocyte growth factor (KGF), released by dermal papilla cells. These two growth factors have a stimulatory activity on hair growth by activating specific signalling pathways.\n(§2) The studies were carried out on dermal papilla cells derived from human hair follicles from three different donors. The cells are seeded in 24-well plates and cultured for 24 h with the necessary supplements. The cells are then treated for 24 h with the products, i.e., either with ATP (30 μM), with Cressatine®, i.e., an aqueous extract of watercress and an aqueous extract of Indian cress (140 μg/ml), or with the combination ATP-Cressatine® at the same concentrations as before. The supernatants were collected for subsequent analysis of markers HGF and KGF. HGF is measured using set HCCBP1MAG-58K from EMD Millipore and KGF is measured by using set KGF/FGF-7 DuoSet ELISA DY251 from R&D Systems."}, "[2]": {"test_system": "keratinocyte growth factor (KGF) released by dermal papilla cells", "assay": "KGF release by dermal papilla cells derived from human hair follicles", "type": "cell-based", "details": "ATP 30 μM", "description": "as §1, §2"}, "[3]": {"details": "cells treated for 24 h, Cressatine 140 μg/ml, combination at same concentrations, average of 3 donors"}}, "data": [{"compound": "Nc1ncnc2c1ncn2[C@@H]1O[C@H](COP(=O)(O)OP(=O)(O)OP(=O)(O)O)[C@@H](O)[C@H]1O", "note": "[ATP, adenosine 5′-triphosphate]", "values": [{"measurement": "HGF", "setting": "[1]; [3]", "value": 92, "unit": "pg/mL"}, {"measurement": "modulation of the production of HGF (in words)", "setting": "[1]; versus control, 24 h", "value": "does not significantly modulate"}, {"measurement": "KGF", "setting": "[2]; [3]", "value": 37, "unit": "pg/mL"}, {"measurement": "higher secretion of KGF", "setting": "[2]; versus control, 24 h", "value": 50, "unit": "%"}]}]}
